US20060270618A1, “Novel pharmaceutical composition of interferon gamma or pirfenidone with molecular diagnostics for the improved treatment of interstitial lung diseases” (priority 2001, published 2006)

What was measured:
[1] = test system: bleomycin-induced lung collagen fibrosis; details: bleomycin mice; cited from earlier work
CTGF = details: after six months of therapy; cited from earlier work
TGF-β1 = details: after six months of therapy; cited from earlier work
[2] = test system: individuals suffering from IPF; details: cited from earlier work
[3] = test system: patients suffering from severe interstitial lung disease (ILD); test: Therapy of ILD/IPF patients: gene expression analysis followed by interferon gamma; assay type: in vivo, human
Source text: Biopsies were taken from patients suffering from severe interstitial lung disease (ILD), after […] was given, using the surgical method of bronchoscopy. Obtained tissue probes were stored and processed for isolation of total RNA in RNAlater™ (patent pending), an aqueous, non-toxic tissue storage reagent that stabilizes and protects cellular RNA in intact, unfrozen tissue samples.
Analysis of Infectious agents in biopsies. As patients with ILD repeatedly suffer from inflammations, biopsied material was tested for the presence of infectious agents. Most dominant was the observation of underlying Herpes virus infections (treated with Ganciclovir) and various bacterial infections (treated with various antibiotics), or few fungal infections.
Therapy. Therapy with interferon gamma was only started after successful pretreatment of the underlying infections and the assessment of the gene expression of the endogenous disease signiture genes.

[4] = test system: patient with histologically proven UIP; test: Single patient with histologically proven UIP, CMV pretreatment then interferon gamma (FIG. 1); assay type: in vivo, human; details: failure of immunosuppressive treatment, gene transcription analysis
Source text: FIG. 1: FIG. 1 depicts the total lung capacity (TLC), the partial pressure of arterial oxygen (PaO2), and the forced vital capacity (FVC) of a patient with histologically proven UIP (open lung biopsy) and failure of immunosuppressive treatment treated with interferon gamma. FIG. 1b) depicts the total lung capacity (TLC), the partial pressure of arterial oxygen (PaO2), and the forced vital capacity (FVC) of the same patient with histologically proven UIP (open lung biopsy) and failure of immunosuppressive treatment between time #l and time #2.

[5] = after pretreatment of infections and gene expression analysis

interferon gamma [naturally occurring glycoprotein cytokine, molecular weight about 17.000, also produced by recombinant techniques]
amount of fibrosis [1]: reduction in the amount of fibrosis
expression of TGF-β1 [1]: reduced expression
transcription of CTGF (CTGF): significantly diminished
transcription of TGF-β1 (TGF-β1): significantly diminished
lung function [2]: improvement of lung function
physical exertion capacity [3, 5]: substantial increase
total lung capacity [3, 5]: statistically highly significant increase
partial pressure of arterial oxygen ([3]; at rest): statistically significant increased
effectiveness in the combination therapy ([3]; dose of 1.0-5.0 μg/kg body weight, 1-5 times per week, parenteral): effective
disease symptoms ([3]; human, in vivo): strong decrease
survival benefit ([3]; patients with IPF): significant survival benefit
clinical outcome of the patient [4]: stabilization of the patient
